According to patent US10730890B2, “Phthalocyanine derivative consisting of a mixture of 4 isomers” (MOLTENI THERAPEUTICS S.R.L., priority 2009, dated 2020):

What was measured:
[1] = pharmacological and toxicological activity of product (I) compared with compounds (V) and (VI); details: new isomers distribution (low isomer B content) with respect to compounds (V) and (VI)
[2] = solubilisation of intermediate (II) in DMF and THF/MeOH 1/1, HPLC analysis of the solutions; assay type: physicochemical; details: 2 mg/ml, isomer B precipitates
Method: Experimental Proof of the Difficulty of Preparing Solutions of (II), Due to the Low Solubility of the Isomer B.
Two samples of the same batch of intermediate (II) are solubilised (2 mg/ml) in, DMF and THF/MeOH 1/1. The solutions are appropriately diluted and analysed in HPLC. […] This behaviour can lead to the preparation of samples having variable composition and, ultimately, to the production of not reliable analytical data including the ones concerning the other isomers

solubility of the isomer B in comparison to the other isomers [2]	Substance	difference in terms of pharmacological and toxicological activity [1]
–	[1.8(11),15(18),22(25)-tetrakis-(3-N,N,N-trimethylammonium phenoxy)] Zinc Phthalocyaninate Tetrachloride “With Low Isomer B Content” [(I)]	does not imply any difference
lower solubility	[1,8(11),15(18),22(25)-tetrakis-(3-N,N-dimethylamino phenoxy)] Zinc Phthalocyaninate [isomer B]	–
